# Data as given in the NIST ThermoML archive (doi:10.1021/je7005727).
# Numbers after ± are expanded uncertainties.
# Settings: 101.33 kPa, Liquid; for speed of sound: Sing-around technique in a fixed-path interferometer
SMILES,speed of sound (293.15 K) [m/s],speed of sound (298.15 K) [m/s],speed of sound (303.15 K) [m/s],mass density (293.15 K) [kg/m3],mass density (298.15 K) [kg/m3],mass density (303.15 K) [kg/m3]
CCCCCCO [hexan-1-ol],1320.3 ± 1.2,1303 ± 1.2,1286.3 ± 1.2,,,
CCCCCO [pentan-1-ol],1292.5 ± 1.2,1275.1 ± 1.2,1258.5 ± 1.2,814.738 ± 0.76,811.067 ± 0.77,807.366 ± 0.78
CCCCO [butan-1-ol],1256.7 ± 0.82,1239.2 ± 0.81,1222.7 ± 0.81,809.644 ± 0.46,805.842 ± 0.47,801.995 ± 0.47
